One data set relates to Influenza A N1H1. As to the kind of experiment: In vivo antiviral efficacy in Balb/c mice, lung virus titer by TCID50 assay. On the procedure: Mice received a daily MB-dose of 5 mg/kg based on a daily drinking volume of ˜5-6 ml and a body weight of 25-35 g. The control group received drinking water with saccharin but without methylene blue.
Mice were euthanized and lungs were removed on day 3 post challenge with influenza H1N1 virus. These tissue samples were stored at <−60° C. until they were transferred into homogenization tubes containing 1 ml cell medium supplemented with antibiotics. The lungs were homogenized two times at 5000 rpm for twenty seconds with 10 seconds pause between the intervals with a tissue homogenizer. The infectious H1N1 virus titer in homogenized lung samples was determined by a TCID50 assay performed by titration on Madin-Darby Canine Kidney (MDCK) cells as described above.

For data set [1] the following is noted: in vivo; cited from earlier work.

Each structure is given as a SMILES string.

With `CN(C)c1ccc2nc3ccc(=[N+](C)C)cc-3sc2c1.[Cl-]` [methylene blue, [7-(dimethylamino)phenothiazin-3-ylidene]-dimethylazanium; chloride], the “viricidal efficacy, lung virus titer (TCID50 assay)” value in the data set on Influenza A N1H1 (prophylactic application, 5 mg/kg daily in drinking water from day 0, challenge day 10, lungs 3 days later) was “significant viricidal efficacy”; in the data set with Influenza A N1H1 (therapeutic application, 5 mg/kg daily in drinking water from day 11, challenge day 10), “significant viricidal efficacy”.

For `Cc1cc2nc3c(=O)[nH]c(=O)nc-3n(C[C@H](O)[C@H](O)[C@H](O)CO)c2cc1C` [riboflavin, 7,8-dimethyl-10-[(2S,3S,4R)-2,3,4,5-tetrahydroxypentyl]benzo[g]pteridine-2,4-dione], in data set [1], the initial half-life is 1.4 h and the terminal half-life was 14 h.

The record behind these values is US20230226072A1 (priority 2020, published 2023).
